Source: patent publication US20020137929A1, “1 - (3-heterocyclylphenyl) isothiourea, -isourea, -guanidine and -amidine herbicidal agents” (Intellectual Property Department, BASF Aktiengesellschaft, priority 1998, published 2002)

Columns and labels:
ZEAMX (Corn, Field) [1] = test: Postemergence herbicidal evaluation; assay type: in vivo, Zea mays; details: postemergence
Outline: (§1)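 Young plants, roughly two weeks from seeding, receive the active ingredient as a sprayed dispersion (acetone/water 50/50, 0.5% TWEEN 20) at 40 psi. Doses span about 0.0156 to 0.500 kg/ha. A visual score from 0 to 9 compares treated with control plants four to five weeks on.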

[2] = system: TRZAWR (Wheat, Winter, cv Riband); test: Preemergence herbicidal evaluation; assay type: in vivo, Triticum aestivum; details: rated 4-5 weeks after treatment
Outline: (§2)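 Test compound, dissolved in aqueous acetone, was sprayed over planted soil cups at an equivalent of about 0.0156 to 0.500 kg/ha; seeds had been mixed with potting soil. Greenhouse growth followed, with visual 0-9 scoring of injury at four to five weeks.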

CASOB (Sicklepod) = test: Postemergence herbicidal evaluation; assay type: in vivo, Cassia obtusifolia; details: postemergence
Outline: as §1

[3] = system: ECHORC (Watergrass (Calif.)); test: Preemergence weed control under flooded paddy conditions; assay type: in vivo, Echinochloa oryzoides; details: rated 3-4 weeks after treatment
Outline: (§3)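 Herbicidal effect is scored visually on a 0-9 scale against an untreated control, three to four weeks after compounds are pipetted into the flood water (1.5 to 3 cm deep) over seeds planted in silt loam at 0.5 cm depth. Rates: about 0.0313 to 0.500 kg/ha.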

GALAP (Galium) = test: Postemergence herbicidal evaluation; assay type: in vivo, Galium aparine; details: postemergence
Outline: as §1

[4] = system: CHEAL (Lambsquarters, Common); test: Preemergence herbicidal evaluation; assay type: in vivo, Chenopodium album; details: rated 4-5 weeks after treatment
Outline: as §2

AMBEL (Ragweed, Common) = test: Preemergence herbicidal evaluation; assay type: in vivo, Ambrosia artemisifolia; details: rated 4-5 weeks after treatment
Outline: as §2

CYPSE (Flatsedge) = test: Preemergence weed control under flooded paddy conditions; assay type: in vivo, Cyperus serotinus; details: rated 3-4 weeks after treatment
Outline: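 Seeds or propagules sown in silt loam kept flooded 1.5-3 cm; compounds in 50/50 acetone/water pipetted into flood water at about 0.0313 to 0.500 kg/ha. Greenhouse; visual 0-9 rating versus untreated control 3-4 weeks after treatment.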

ORYSAT (Rice, Tebonnet) = test: Preemergence herbicidal evaluation; assay type: in vivo, Oryza sativa, (L.) Tebonnet; details: rated 4-5 weeks after treatment
Outline: as §2

[5] = system: IPOHE (Morningglory, Ivyleaf); test: Preemergence herbicidal evaluation; assay type: in vivo, Ipomoea hederacea; details: rated 4-5 weeks after treatment
Outline: as §2

CYPIR (Rice Flatsedge) = test: Preemergence weed control under flooded paddy conditions; assay type: in vivo, Cyperus iria; details: rated 3-4 weeks after treatment
Outline: as §3

ZEAMX (Corn, Field) [6] = test: Preemergence herbicidal evaluation; assay type: in vivo, Zea mays; details: rated 4-5 weeks after treatment
Outline: as §2

Cn1c(C(F)(F)F)cc(=O)n(-c2cc(N=C3SCC(=O)N3Cc3ccco3)c(Cl)cc2F)c1=O [Compound 122, 3-{4-Chloro-2-fluoro-5-[(3-furfuryl-4-oxo-2-thiazolidinylidene)amino]phenyl}-1-methyl-6-(trifluoromethyl)-2,4(1H,3H)-pyrimidinedione]
herbicidal rating ZEAMX (ZEAMX (Corn, Field) [1]; rate 0.0156 kg/ha): 4.5 | herbicidal rating ZEAMX (ZEAMX (Corn, Field) [1]; rate 0.0313 kg/ha): 7.0 | herbicidal rating ZEAMX (ZEAMX (Corn, Field) [1]; rate 0.0625 kg/ha): 7.0 | herbicidal rating ZEAMX (ZEAMX (Corn, Field) [1]; rate 0.1250 kg/ha): 7.0 | Preemergence herbicidal rating TRZAWR ([2]; rate 0.0156 kg/ha): 0.0 | Preemergence herbicidal rating TRZAWR ([2]; rate 0.0313 kg/ha): 0.0 | Preemergence herbicidal rating TRZAWR ([2]; rate 0.0625 kg/ha): 0.0 | Preemergence herbicidal rating TRZAWR ([2]; rate 0.1250 kg/ha): 0.0 | Preemergence herbicidal rating TRZAWR ([2]; rate 0.2500 kg/ha): 0.0 | Preemergence herbicidal rating TRZAWR ([2]; rate 0.5000 kg/ha): 1.0 | herbicidal rating CASOB (CASOB (Sicklepod); rate 0.0156 kg/ha): 1.0 | herbicidal rating CASOB (CASOB (Sicklepod); rate 0.0313 kg/ha): 3.0 | herbicidal rating CASOB (CASOB (Sicklepod); rate 0.0625 kg/ha): 3.0 | herbicidal rating CASOB (CASOB (Sicklepod); rate 0.1250 kg/ha): 4.0 | herbicidal effect rating, ECHORC ([3]; 0.0313 kg/ha): 6.0 | herbicidal effect rating, ECHORC ([3]; 0.0625 kg/ha): 7.0 | herbicidal effect rating, ECHORC ([3]; 0.1250 kg/ha): 7.0 | herbicidal effect rating, ECHORC ([3]; 0.2500 kg/ha): 7.0 | herbicidal rating GALAP (GALAP (Galium); rate 0.0156 kg/ha): 2.0 | herbicidal rating GALAP (GALAP (Galium); rate 0.0313 kg/ha): 2.0 | herbicidal rating GALAP (GALAP (Galium); rate 0.0625 kg/ha): 4.0 | herbicidal rating GALAP (GALAP (Galium); rate 0.1250 kg/ha): 6.0 | Preemergence herbicidal rating CHEAL ([4]; rate 0.0156 kg/ha): 9.0 | Preemergence herbicidal rating CHEAL ([4]; rate 0.0313 kg/ha): 9.0 | Preemergence herbicidal rating CHEAL ([4]; rate 0.0625 kg/ha): 7.0 | Preemergence herbicidal rating CHEAL ([4]; rate 0.1250 kg/ha): 9.0 | Preemergence herbicidal rating CHEAL ([4]; rate 0.2500 kg/ha): 9.0 | Preemergence herbicidal rating CHEAL ([4]; rate 0.5000 kg/ha): 9.0 | Preemergence herbicidal rating AMBEL (AMBEL (Ragweed, Common); rate 0.0156 kg/ha): 0.0 | Preemergence herbicidal rating AMBEL (AMBEL (Ragweed, Common); rate 0.0313 kg/ha): 0.0 | Preemergence herbicidal rating AMBEL (AMBEL (Ragweed, Common); rate 0.0625 kg/ha): 0.0 | Preemergence herbicidal rating AMBEL (AMBEL (Ragweed, Common); rate 0.1250 kg/ha): 2.0 | Preemergence herbicidal rating AMBEL (AMBEL (Ragweed, Common); rate 0.2500 kg/ha): 2.0 | Preemergence herbicidal rating AMBEL (AMBEL (Ragweed, Common); rate 0.5000 kg/ha): 3.0 | herbicidal effect rating, CYPSE (CYPSE (Flatsedge); 0.2500 kg/ha): 3.0 | Preemergence herbicidal rating ORYSAT (ORYSAT (Rice, Tebonnet); rate 0.0156 kg/ha): 0.0 | Preemergence herbicidal rating ORYSAT (ORYSAT (Rice, Tebonnet); rate 0.0313 kg/ha): 0.0 | Preemergence herbicidal rating ORYSAT (ORYSAT (Rice, Tebonnet); rate 0.0625 kg/ha): 0.0 | Preemergence herbicidal rating ORYSAT (ORYSAT (Rice, Tebonnet); rate 0.1250 kg/ha): 0.0 | Preemergence herbicidal rating ORYSAT (ORYSAT (Rice, Tebonnet); rate 0.2500 kg/ha): 0.0 | Preemergence herbicidal rating ORYSAT (ORYSAT (Rice, Tebonnet); rate 0.5000 kg/ha): 1.0 | Preemergence herbicidal rating IPOHE ([5]; rate 0.0156 kg/ha): 0.0 | Preemergence herbicidal rating IPOHE ([5]; rate 0.0313 kg/ha): 0.0 | Preemergence herbicidal rating IPOHE ([5]; rate 0.0625 kg/ha): 0.0 | Preemergence herbicidal rating IPOHE ([5]; rate 0.1250 kg/ha): 2.0 | Preemergence herbicidal rating IPOHE ([5]; rate 0.2500 kg/ha): 1.0 | Preemergence herbicidal rating IPOHE ([5]; rate 0.5000 kg/ha): 1.0 | herbicidal effect rating, CYPIR (CYPIR (Rice Flatsedge); 0.0313 kg/ha): 4.0 | herbicidal effect rating, CYPIR (CYPIR (Rice Flatsedge); 0.0625 kg/ha): 7.0 | herbicidal effect rating, CYPIR (CYPIR (Rice Flatsedge); 0.1250 kg/ha): 7.0 | herbicidal effect rating, CYPIR (CYPIR (Rice Flatsedge); 0.2500 kg/ha): 8.0 | Preemergence herbicidal rating ZEAMX (ZEAMX (Corn, Field) [6]; rate 0.0156 kg/ha): 0.0 | Preemergence herbicidal rating ZEAMX (ZEAMX (Corn, Field) [6]; rate 0.0313 kg/ha): 0.0 | Preemergence herbicidal rating ZEAMX (ZEAMX (Corn, Field) [6]; rate 0.0625 kg/ha): 0.0 | Preemergence herbicidal rating ZEAMX (ZEAMX (Corn, Field) [6]; rate 0.1250 kg/ha): 0.0 | Preemergence herbicidal rating ZEAMX (ZEAMX (Corn, Field) [6]; rate 0.2500 kg/ha): 0.0 | Preemergence herbicidal rating ZEAMX (ZEAMX (Corn, Field) [6]; rate 0.5000 kg/ha): 1.0

Cn1c(C(F)(F)F)cc(=O)n(-c2cc(N=C3SCC(=O)N3CC(=O)OCC3CC3)c(Cl)cc2F)c1=O [Compound 124, Cyclopropylmethyl 2-{{2-chloro-5-[3,6-dihydro-3-methyl-2,6-dioxo-4-(trifluoromethyl)-1(2H)-pyrimidinyl]-4-fluorophenyl}imino}-4-oxo-3-thiazolidineacetate]
herbicidal rating ZEAMX (ZEAMX (Corn, Field) [1]; rate 0.0156 kg/ha): 6.3 | herbicidal rating ZEAMX (ZEAMX (Corn, Field) [1]; rate 0.0313 kg/ha): 7.3 | herbicidal rating ZEAMX (ZEAMX (Corn, Field) [1]; rate 0.0625 kg/ha): 8.0 | Preemergence herbicidal rating TRZAWR ([2]; rate 0.0156 kg/ha): 0.0 | Preemergence herbicidal rating TRZAWR ([2]; rate 0.0313 kg/ha): 0.0 | Preemergence herbicidal rating TRZAWR ([2]; rate 0.0625 kg/ha): 0.0 | Preemergence herbicidal rating TRZAWR ([2]; rate 0.1250 kg/ha): 0.0 | Preemergence herbicidal rating TRZAWR ([2]; rate 0.2500 kg/ha): 0.0 | Preemergence herbicidal rating TRZAWR ([2]; rate 0.5000 kg/ha): 0.0 | herbicidal rating CASOB (CASOB (Sicklepod); rate 0.0156 kg/ha): 2.0 | herbicidal rating CASOB (CASOB (Sicklepod); rate 0.0313 kg/ha): 2.0 | herbicidal rating CASOB (CASOB (Sicklepod); rate 0.0625 kg/ha): 3.0 | herbicidal effect rating, ECHORC ([3]; 0.0313 kg/ha): 5.0 | herbicidal effect rating, ECHORC ([3]; 0.0625 kg/ha): 5.0 | herbicidal effect rating, ECHORC ([3]; 0.1250 kg/ha): 9.0 | herbicidal effect rating, ECHORC ([3]; 0.2500 kg/ha): 8.0 | herbicidal rating GALAP (GALAP (Galium); rate 0.0156 kg/ha): 0.0 | herbicidal rating GALAP (GALAP (Galium); rate 0.0313 kg/ha): 1.0 | herbicidal rating GALAP (GALAP (Galium); rate 0.0625 kg/ha): 6.0 | Preemergence herbicidal rating CHEAL ([4]; rate 0.0156 kg/ha): 9.0 | Preemergence herbicidal rating CHEAL ([4]; rate 0.0313 kg/ha): 9.0 | Preemergence herbicidal rating CHEAL ([4]; rate 0.0625 kg/ha): 9.0 | Preemergence herbicidal rating CHEAL ([4]; rate 0.1250 kg/ha): 9.0 | Preemergence herbicidal rating CHEAL ([4]; rate 0.2500 kg/ha): 9.0 | Preemergence herbicidal rating CHEAL ([4]; rate 0.5000 kg/ha): 9.0 | Preemergence herbicidal rating AMBEL (AMBEL (Ragweed, Common); rate 0.0156 kg/ha): 0.0 | Preemergence herbicidal rating AMBEL (AMBEL (Ragweed, Common); rate 0.0313 kg/ha): 0.0 | Preemergence herbicidal rating AMBEL (AMBEL (Ragweed, Common); rate 0.0625 kg/ha): 4.0 | Preemergence herbicidal rating AMBEL (AMBEL (Ragweed, Common); rate 0.1250 kg/ha): 9.0 | Preemergence herbicidal rating AMBEL (AMBEL (Ragweed, Common); rate 0.2500 kg/ha): 9.0 | Preemergence herbicidal rating AMBEL (AMBEL (Ragweed, Common); rate 0.5000 kg/ha): 9.0 | herbicidal effect rating, CYPSE (CYPSE (Flatsedge); 0.0313 kg/ha): 0.0 | herbicidal effect rating, CYPSE (CYPSE (Flatsedge); 0.0625 kg/ha): 0.0 | herbicidal effect rating, CYPSE (CYPSE (Flatsedge); 0.1250 kg/ha): 2.0 | herbicidal effect rating, CYPSE (CYPSE (Flatsedge); 0.2500 kg/ha): 3.0 | Preemergence herbicidal rating ORYSAT (ORYSAT (Rice, Tebonnet); rate 0.0156 kg/ha): 0.0 | Preemergence herbicidal rating ORYSAT (ORYSAT (Rice, Tebonnet); rate 0.0313 kg/ha): 0.0 | Preemergence herbicidal rating ORYSAT (ORYSAT (Rice, Tebonnet); rate 0.0625 kg/ha): 0.0 | Preemergence herbicidal rating ORYSAT (ORYSAT (Rice, Tebonnet); rate 0.1250 kg/ha): 0.0 | Preemergence herbicidal rating ORYSAT (ORYSAT (Rice, Tebonnet); rate 0.2500 kg/ha): 0.0 | Preemergence herbicidal rating ORYSAT (ORYSAT (Rice, Tebonnet); rate 0.5000 kg/ha): 2.0 | Preemergence herbicidal rating IPOHE ([5]; rate 0.0156 kg/ha): 0.0 | Preemergence herbicidal rating IPOHE ([5]; rate 0.0313 kg/ha): 0.0 | Preemergence herbicidal rating IPOHE ([5]; rate 0.0625 kg/ha): 0.0 | Preemergence herbicidal rating IPOHE ([5]; rate 0.1250 kg/ha): 0.0 | Preemergence herbicidal rating IPOHE ([5]; rate 0.2500 kg/ha): 1.0 | Preemergence herbicidal rating IPOHE ([5]; rate 0.5000 kg/ha): 6.0 | herbicidal effect rating, CYPIR (CYPIR (Rice Flatsedge); 0.0313 kg/ha): 0.0 | herbicidal effect rating, CYPIR (CYPIR (Rice Flatsedge); 0.0625 kg/ha): 0.0 | herbicidal effect rating, CYPIR (CYPIR (Rice Flatsedge); 0.1250 kg/ha): 0.0 | herbicidal effect rating, CYPIR (CYPIR (Rice Flatsedge); 0.2500 kg/ha): 6.0 | Preemergence herbicidal rating ZEAMX (ZEAMX (Corn, Field) [6]; rate 0.0156 kg/ha): 0.0 | Preemergence herbicidal rating ZEAMX (ZEAMX (Corn, Field) [6]; rate 0.0313 kg/ha): 0.0 | Preemergence herbicidal rating ZEAMX (ZEAMX (Corn, Field) [6]; rate 0.0625 kg/ha): 0.0 | Preemergence herbicidal rating ZEAMX (ZEAMX (Corn, Field) [6]; rate 0.1250 kg/ha): 0.0 | Preemergence herbicidal rating ZEAMX (ZEAMX (Corn, Field) [6]; rate 0.2500 kg/ha): 0.0 | Preemergence herbicidal rating ZEAMX (ZEAMX (Corn, Field) [6]; rate 0.5000 kg/ha): 1.0
